Measurements published in patent publication USRE48097E1, “Cephem compounds, their production and use” (priority 2015, dated 2020).
≈ marks a conversion by molar mass, not a printed value. Where two headings read alike, the source gives them in different places.

Columns and labels:
S. aureus 3144 = experiment: MIC against S. aureus 3144; assay type: cell-based; details: Table 2, S. aureus 3144, MSSA
Source text: (§1) Without limitation, the present cephem compounds alone, or in combination with one or more β-lactamase inhibitors, may provide improved antibacterial efficacy, particularly in antibiotic-resistant bacterial strains. It is believed that the present compounds may be structurally different from known compounds and, as a result, may be more basic in nature. It is an advantage that the present compounds may extend the spectrum of effective bacterial compounds, particularly against previously-resistant bacteria (e.g. ESKAPE organisms), and/or gram negative bacteria, without significant side effects. In a preferred embodiment, the present cephem compound may comprise reference compound ceftazidime, which may be used alone, or in combination with one or more β-lactamase inhibitors, such as NXL-104. As shown, the foregoing composition was tested for minimum inhibitory concentration (MIC, μg/mL) against bacteria listed in Tables 2-3.

S. pneumoniae ATCC 6301 = experiment: MIC against S. pneumoniae ATCC 6301; assay type: cell-based; details: Table 2, S. pneumoniae ATCC 6301, Pen S
Source text: as §1

S. pneumoniae 2392 = experiment: MIC against S. pneumoniae 2392; assay type: cell-based; details: Table 2, S. pneumoniae 2392, Pen R
Source text: as §1

S. pneumoniae 2492 = experiment: MIC against S. pneumoniae 2492; assay type: cell-based; details: Table 2, S. pneumoniae 2492, Pen R
Source text: as §1

S. pneumoniae 2493 = experiment: MIC against S. pneumoniae 2493; assay type: cell-based; details: Table 2, S. pneumoniae 2493, Pen R
Source text: as §1

E. cloacae 551 = experiment: MIC against E. cloacae 551; assay type: cell-based; details: Table 2, E. cloacae 551, Caz R, IMP S
Source text: as §1

E. cloacae596 = experiment: MIC against E. cloacae596; assay type: cell-based, E. cloacae; details: Table 2, E. cloacae596, Caz R, IMP S
Source text: as §1

K. pneumoniae 4104 = experiment: MIC against K. pneumoniae 4104; assay type: cell-based; details: K. pneumoniae 4104, KPC-3, TEM-1
Description: (§2) As shown, the foregoing composition was tested for minimum inhibitory concentration (MIC, μg/mL) against bacteria listed in Tables 2-3.

K. pneumoniae 4105 = experiment: MIC against K. pneumoniae 4105; assay type: cell-based; details: K. pneumoniae 4105, KPC-3, TEM-1, SHV-11
Description: as §2

K. pneumoniae 4108 = experiment: MIC against K. pneumoniae 4108; assay type: cell-based; details: K. pneumoniae 4108, KPC-3, TEM-166, SHV-12, SHV-141
Description: as §2

K. pneumoniae 4109 = experiment: MIC against K. pneumoniae 4109; assay type: cell-based; details: Table 2, K. pneumoniae 4109, SHV-1, SHV-12
Source text: as §1

M. morganii 2409 = experiment: MIC against M. morganii 2409; assay type: cell-based; details: Table 2, M. morganii 2409, High level cephase, β-Lactamase producing
Source text: as §1

E. coli 2671 = experiment: MIC against E. coli 2671; assay type: cell-based; details: Table 2, E. coli 2671, VIM-19
Source text: as §1

E. coli 4098 = experiment: MIC against E. coli 4098; assay type: cell-based; details: Table 2, E. coli 4098, CTX-M-15, TEM-1
Source text: as §1

E. coli 4101 = experiment: MIC against E. coli 4101; assay type: cell-based; details: Table 2, E. coli 4101, CTX-M-14, TEM-1
Source text: as §1

E. coli 102 = experiment: MIC against E. coli 102; assay type: cell-based; details: Table 2, E. coli 102, TEM-1
Source text: as §1

K. baumanii 4094 = experiment: MIC against K. baumanii 4094; assay type: cell-based; details: Table 2, K. baumanii 4094, OXA-51
Source text: as §1

K. baumanii 4095 = experiment: MIC against K. baumanii 4095; assay type: cell-based; details: Table 2, K. baumanii 4095, OXA-48
Source text: as §1

E. cloacae 2706 = experiment: MIC against E. cloacae 2706; assay type: cell-based; details: Table 3, E. cloacae 2706, VIM-1, KPC-3
Description: as §2

E. cloacae 2709 = experiment: MIC against E. cloacae 2709; assay type: cell-based; details: Table 3, E. cloacae 2709, KPC-3, VIM-1
Description: as §2

E. coli 2666 = experiment: MIC against E. coli 2666; assay type: cell-based; details: Table 3, E. coli 2666, KPC-2
Description: as §2

K. pneumoniae 2713 = experiment: MIC against K. pneumoniae 2713; assay type: cell-based; details: Table 3, K. pneumoniae 2713, KPC-3, VIM-1
Description: as §2

K. pneumoniae 4088 = experiment: MIC against K. pneumoniae 4088; assay type: cell-based; details: Table 3, K. pneumoniae 4088, KPC-3
Description: as §2

[1] = Staphylococcus aureus, alone, read-out: MIC
[2] = Streptococcus pneumoniae, ATCC6301, alone, read-out: MIC
[3] = Streptococcus pneumoniae, alone, read-out: MIC
[4] = Enterobacter cloacae, alone, read-out: MIC
[5] = Klebsiella pneumoniae, 4104, Table 2, alone, read-out: MIC
[6] = Klebsiella pneumoniae, 4104, Table 3, alone, read-out: MIC
[7] = Klebsiella pneumoniae, 4105, Table 2, alone, read-out: MIC
[8] = Klebsiella pneumoniae, 4105, Table 3, alone, read-out: MIC
[9] = Klebsiella pneumoniae, 4108, Table 2, alone, read-out: MIC
[10] = Klebsiella pneumoniae, 4108, Table 3, alone, read-out: MIC
[11] = Klebsiella pneumoniae, alone, read-out: MIC
[12] = Morganella morganii, alone, read-out: MIC
[13] = Escherichia coli, alone, read-out: MIC
[14] = Table 2, in combination with NXL-104
[15] = Table 3, in combination with NXL-104

CC(C)(O/N=C(\C(=O)N[C@@H]1C(=O)N2C(C(=O)[O-])=C(C[n+]3ccc4c(ccn4Cc4ccc(C(=N)N)cc4)c3)CS[C@H]12)c1csc(N)n1)C(=O)O [Ex-1, (6R,7R)-7-{[(2Z)-2-(2-Amino-1,3-thiazol-4-yl)-2-{[(2-carboxypropan-2-yl)oxy]imino}acetyl]-amino}-3-{[1-(4-carbamimidoylbenzyl)-1H-pyrrolo[3,2-c]pyridin-5-ium-5-yl]methyl}-8-oxo-5-thia-1-azabicyclo[4.2.0]oct-2-ene-2-carboxylate]
MIC (S. aureus 3144; [1]): 4 µg/mL
MIC (S. pneumoniae ATCC 6301; [2]): ≤ 0.06 µg/mL
MIC (S. pneumoniae 2392; [3]): 2 µg/mL
MIC (S. pneumoniae 2492; [3]): 2 µg/mL
MIC (S. pneumoniae 2493; [3]): 4 µg/mL
MIC (E. cloacae 551; [4]): 32 µg/mL
MIC (E. cloacae596; [4]): 4 µg/mL
MIC (K. pneumoniae 4104; [5]): 16 µg/mL (≈ 22.3 µM)
MIC (K. pneumoniae 4104; [6]): 32 µg/mL (≈ 44.6 µM)
MIC (K. pneumoniae 4105; [7]): 16 µg/mL (≈ 22.3 µM)
MIC (K. pneumoniae 4105; [8]): 32 µg/mL (≈ 44.6 µM)
MIC (K. pneumoniae 4108; [9]): 4 µg/mL (≈ 5.57 µM)
MIC (K. pneumoniae 4108; [10]): 32 µg/mL (≈ 44.6 µM)
MIC (K. pneumoniae 4109; [11]): 2 µg/mL
MIC (M. morganii 2409; [12]): 8 µg/mL
MIC (E. coli 2671; [13]): 16 µg/mL
MIC (E. coli 4098; [13]): 4 µg/mL
MIC (E. coli 4101; [13]): 0.5 µg/mL
MIC (E. coli 102; [13]): ≤ 0.06 µg/mL
MIC (K. baumanii 4094; alone, read-out: MIC): 16 µg/mL
MIC (K. baumanii 4095; alone, read-out: MIC): 0.5 µg/mL
MIC (E. cloacae 2706; [4]): > 32 µg/mL
MIC (E. cloacae 2709; [4]): 32 µg/mL (≈ 44.6 µM)
MIC (E. coli 2666; [13]): 32 µg/mL (≈ 44.6 µM)
MIC (K. pneumoniae 2713; [11]): > 32 µg/mL
MIC (K. pneumoniae 4088; [11]): > 32 µg/mL

CC(C)(O/N=C(\C(=O)N[C@@H]1C(=O)N2C(C(=O)[O-])=C(C[n+]3ccc4n3CCN4Cc3ccc(C(=N)N)cc3)CS[C@H]12)c1csc(N)n1)C(=O)O [Example 2, (6R,7R)-7-{[(2Z)-2-(2-Amino-1,3-thiazol-4-yl)-2-{[(2-carboxypropan-2-yl)oxy]imino}acetyl]amino}-3-{[1-(4-carbamimidoylbenzyl)-2,3-dihydro-1H-imidazo[1,2-b]pyrazol-5-ium-5-yl]methyl}-8-oxo-5-thia-1-azabicyclo[4.2.0]oct-2-ene-2-carboxylate]
MIC (S. aureus 3144; [1]): 4 µg/mL
MIC (S. aureus 3144; in combination with NXL-104): 4.00 µg/mL
MIC (S. pneumoniae ATCC 6301; [2]): ≤ 0.06 µg/mL
MIC (S. pneumoniae ATCC 6301; in combination with NXL-104): ≤0.06 µg/mL
MIC (S. pneumoniae 2392; [3]): 8 µg/mL
MIC (S. pneumoniae 2392; in combination with NXL-104): 8.00 µg/mL
MIC (S. pneumoniae 2492; [3]): 8 µg/mL
MIC (S. pneumoniae 2492; in combination with NXL-104): 8.00 µg/mL
MIC (S. pneumoniae 2493; [3]): 8 µg/mL
MIC (S. pneumoniae 2493; in combination with NXL-104): 8.00 µg/mL
MIC (E. cloacae 551; [4]): 8 µg/mL
MIC (E. cloacae 551; in combination with NXL-104): 1.00 µg/mL
MIC (E. cloacae596; [4]): 0.5 µg/mL
MIC (E. cloacae596; in combination with NXL-104): 0.25 µg/mL
MIC (K. pneumoniae 4104; [5]): 8 µg/mL (≈ 11.3 µM)
MIC (K. pneumoniae 4104; [6]): 32 µg/mL (≈ 45.1 µM)
MIC (K. pneumoniae 4104; [14]): 2.00 µg/mL
MIC (K. pneumoniae 4104; [15]): 2 µg/mL
MIC (K. pneumoniae 4105; [7]): 32 µg/mL (≈ 45.1 µM)
MIC (K. pneumoniae 4105; [8]): > 32 µg/mL
MIC (K. pneumoniae 4105; [14]): 2.00 µg/mL
MIC (K. pneumoniae 4105; [15]): 2 µg/mL
MIC (K. pneumoniae 4108; [9]): 4 µg/mL (≈ 5.64 µM)
MIC (K. pneumoniae 4108; [10]): > 32 µg/mL
MIC (K. pneumoniae 4108; [14]): 1.00 µg/mL
MIC (K. pneumoniae 4108; [15]): 2 µg/mL
MIC (K. pneumoniae 4109; [11]): 0.5 µg/mL
MIC (K. pneumoniae 4109; in combination with NXL-104): 0.12 µg/mL
MIC (M. morganii 2409; [12]): 8 µg/mL
MIC (M. morganii 2409; in combination with NXL-104): 1.00 µg/mL
MIC (E. coli 2671; [13]): 4 µg/mL
MIC (E. coli 2671; in combination with NXL-104): 4.00 µg/mL
MIC (E. coli 4098; [13]): 1 µg/mL
MIC (E. coli 4098; in combination with NXL-104): 0.25 µg/mL
MIC (E. coli 4101; [13]): 0.5 µg/mL
MIC (E. coli 4101; in combination with NXL-104): 0.12 µg/mL
MIC (E. coli 102; [13]): ≤ 0.06 µg/mL
MIC (E. coli 102; in combination with NXL-104): ≤0.06 µg/mL
MIC (K. baumanii 4094; alone, read-out: MIC): 32 µg/mL
MIC (K. baumanii 4094; in combination with NXL-104): 8.00 µg/mL
MIC (K. baumanii 4095; alone, read-out: MIC): 0.25 µg/mL
MIC (K. baumanii 4095; in combination with NXL-104): 0.25 µg/mL
MIC (E. cloacae 2706; [4]): > 32 µg/mL
MIC (E. cloacae 2706; in combination with NXL-104): 32 µg/mL
MIC (E. cloacae 2709; [4]): 16 µg/mL (≈ 22.6 µM)
MIC (E. cloacae 2709; in combination with NXL-104): 4 µg/mL
MIC (E. coli 2666; [13]): 32 µg/mL (≈ 45.1 µM)
MIC (E. coli 2666; in combination with NXL-104): 2 µg/mL
MIC (K. pneumoniae 2713; [11]): > 32 µg/mL
MIC (K. pneumoniae 2713; in combination with NXL-104): 2 µg/mL
MIC (K. pneumoniae 4088; [11]): > 32 µg/mL
MIC (K. pneumoniae 4088; in combination with NXL-104): 4 µg/mL
